Patent US20070128217A1 (priority 2003, published 2007)

Legend:
[1] = system: control sera (pooled serum of ten healthy LUMC hospital workers; commercial negative donor pooled serum from the Dutch bloodbank); type: binding, human; design: Binding of Control serum LUMC to linear peptides / Binding of Control serum Blood-bank to linear peptides / Binding of Control serum LUMC to looped peptides / Binding of Control Serum Blood-Bank to Looped peptides / Binding of Control serum LUMC to linear peptides of the protein M of SARS-CoV Urbani / Binding of Control serum Blood-bank to linear peptides of the protein M of SARS-CoV Urbani / Binding of Control serum LUMC to looped peptides of the protein M of SARS-CoV Urbani / Binding of Control Serum Blood-Bank to Looped peptides of the protein M of SARS-CoV Urbani: unit not given here
[2] = system: antibodies in sera from SARS patients (sera 1a, 1b, 2, 6, 37, 62, London, SARS-yellow, SARS-green); type: binding, human; design: Binding of serum 6 to linear peptides of protein X1 of SARS-CoV Urbani / Binding of serum 37 to linear peptides of protein X1 of SARS-CoV Urbani / Binding of serum 6 to looped/cyclic peptide (PEPSCAN-ELISA) / Binding of serum 37 to looped/cyclic peptide (PEPSCAN-ELISA) / Binding of serum 37 to looped/cyclic peptides of protein X1 of SARS-CoV Urbani / Binding of serum 6 to linear peptides of protein X2 / Binding of serum 37 to linear peptides of protein X2 / Binding of serum 37 to looped/cyclic peptides of protein X2 of SARS-CoV Urbani / Binding of serum 6 to linear peptides of protein M of SARS-CoV Urbani / Binding of serum 37 to linear peptides of protein M of SARS-CoV Urbani / Binding of serum 6 to looped/cyclic peptides of protein M of SARS-CoV Urbani / Binding of serum 37 to looped/cyclic peptides of protein M of SARS-CoV Urbani / Binding of serum 6 to linear peptides of protein X3 of SARS-CoV Urbani / Binding of serum 37 to linear peptides of protein X3 of SARS-CoV Urbani / Binding of serum 37 to looped/cyclic peptides of protein X3 of SARS-CoV Urbani / Binding of serum 6 to linear peptides of protein X4 of SARS-CoV Urbani / Binding of serum 37 to linear peptides of protein X4 of SARS-CoV Urbani / Binding of serum 37 to looped/cyclic peptides of protein X4 of SARS-CoV Urbani / Binding of serum 6 to linear peptides of protein X5 of SARS-CoV Urbani / Binding of serum 37 to linear peptides of protein X5 of SARS-CoV Urbani / Binding of serum 37 to looped/cyclic peptides of protein X5 of SARS-CoV Urbani / Binding of serum 6 to linear peptides of protein N of SARS-CoV Urbani / Binding of serum 37 to linear peptides of protein N of SARS-CoV Urbani / Binding of serum 6 to linear peptide (PEPSCAN-ELISA) / Binding of serum 1a to looped/cyclic peptides of protein N of SARS-CoV Urbani / Binding of serum 1b to looped/cyclic peptides of protein N of SARS-CoV Urbani / Binding of serum 2 to looped/cyclic peptides of protein N of SARS-CoV Urbani / Binding of serum 6 to looped/cyclic peptides of protein N of SARS-CoV Urbani / Binding of serum 37 to looped/cyclic peptides of protein N of SARS-CoV Urbani / Binding of serum 62 to looped/cyclic peptides of protein N of SARS-CoV Urbani / Binding of serum London to looped/cyclic peptides of protein N of SARS-CoV Urbani / Binding of serum SARS-green to looped/cyclic peptides of protein N of SARS-CoV Urbani: unit not given here
[3] = system: rabbit serum obtained by immunizing a rabbit with the SARS-CoV strain Frankfurt 1; type: binding; design: Binding of a rabbit serum to linear peptides / Binding of a rabbit serum to looped peptides / Rabbit serum linear peptides / Rabbit serum looped peptides / Binding of a rabbit serum to linear peptides of protein N of SARS-CoV Urbani (Rabbit serum linear peptides) / Binding of a rabbit serum to looped/cyclic peptides of protein N of SARS-CoV Urbani (Rabbit serum looped peptides): unit not given here

RVGTDSGFAAYNRYR
Binding of Control Serum Blood-Bank to Looped peptides of the protein M of SARS-CoV Urbani [1]: 0.5 | Binding of Control serum Blood-bank to linear peptides of the protein M of SARS-CoV Urbani [1]: 0.7 | Binding of Control serum LUMC to linear peptides of the protein M of SARS-CoV Urbani [1]: 0.4 | Binding of Control serum LUMC to looped peptides of the protein M of SARS-CoV Urbani [1]: 0.6 | Binding of serum 1a to linear peptides of protein M of SARS-CoV Urbani [2]: 0.7 | Binding of serum 1a to looped/cyclic peptides of protein M of SARS-CoV Urbani [2]: 0.8 | Binding of serum 1b to linear peptides of protein M of SARS-CoV Urbani [2]: 0.1 | Binding of serum 1b to looped/cyclic peptides of protein M of SARS-CoV Urbani [2]: 0.5 | Binding of serum 2 to linear peptides of protein M of SARS-CoV Urbani [2]: 0.5 | Binding of serum 2 to looped/cyclic peptides of protein M of SARS-CoV Urbani [2]: 0.6 | Binding of serum 6 to linear peptides of protein M of SARS-CoV Urbani [2]: 0.5 | Binding of serum 6 to looped/cyclic peptides of protein M of SARS-CoV Urbani [2]: 1.4 | Binding of serum 37 to linear peptides of protein M of SARS-CoV Urbani [2]: 0.6 | Binding of serum 37 to looped/cyclic peptides of protein M of SARS-CoV Urbani [2]: 0.7 | Binding of serum 62 to linear peptides of protein M of SARS-CoV Urbani [2]: 0.2 | Binding of serum 62 to looped/cyclic peptides of protein M of SARS-CoV Urbani [2]: 0.6 | Binding of serum London to linear peptides of protein M of SARS-CoV Urbani [2]: 0.3 | Binding of serum London to looped/cyclic peptides of protein M of SARS-CoV Urbani [2]: 0.4 | Binding of serum SARS-green to linear peptides of protein M of SARS-CoV Urbani [2]: 0.5 | Binding of serum SARS-green to looped/cyclic peptides of protein M of SARS-CoV Urbani [2]: 0.3 | Binding of serum SARS-yellow to linear peptides of protein M of SARS-CoV Urbani [2]: 0.3 | Binding of serum SARS-yellow to looped/cyclic peptides of protein M of SARS-CoV Urbani [2]: 0.5 | Rabbit serum linear peptides [3]: 0.0 | Rabbit serum looped peptides [3]: 0.3

RWQLALYKGFQFICN
Binding of Control Serum Blood-Bank to Looped peptides [1]: 0.6 | Binding of Control serum Blood-bank to linear peptides [1]: 0.6 | Binding of Control serum LUMC to linear peptides [1]: 0.4 | Binding of Control serum LUMC to looped peptides [1]: 0.6 | Binding of serum 1a to linear peptides of protein X1 of SARS-CoV Urbani [2]: 0.7 | Binding of serum 1a to looped/cyclic peptide (PEPSCAN-ELISA) [2]: 0.6 | Binding of serum 1b to linear peptides of protein X1 of SARS-CoV Urbani [2]: 0.5 | Binding of serum 1b to looped/cyclic peptide (PEPSCAN-ELISA) [2]: 0.4 | Binding of serum 2 to linear peptides of protein X1 of SARS-CoV Urbani [2]: 0.5 | Binding of serum 2 to looped/cyclic peptide (PEPSCAN-ELISA) [2]: 0.5 | Binding of serum 6 to linear peptides of protein X1 of SARS-CoV Urbani [2]: 0.4 | Binding of serum 6 to looped/cyclic peptide (PEPSCAN-ELISA) [2]: 0.9 | Binding of serum 37 to linear peptides of protein X1 of SARS-CoV Urbani [2]: 0.6 | Binding of serum 37 to looped/cyclic peptide (PEPSCAN-ELISA) [2]: 0.6 | Binding of serum 62 to linear peptides of protein X1 of SARS-CoV Urbani [2]: 0.5 | Binding of serum 62 to looped/cyclic peptide (PEPSCAN-ELISA) [2]: 0.6 | Binding of serum London to linear peptides of protein X1 of SARS-CoV Urbani [2]: 0.3 | Binding of serum London to looped/cyclic peptide (PEPSCAN-ELISA) [2]: 1.4 | Binding of serum SARS-green to linear peptides of protein X1 of SARS-CoV Urbani [2]: 0.3 | Binding of serum SARS-green to looped/cyclic peptide (PEPSCAN-ELISA) [2]: 0.3 | Binding of serum SARS-yellow to linear peptides of protein X1 of SARS-CoV Urbani [2]: 0.2 | Binding of serum SARS-yellow to looped/cyclic peptide (PEPSCAN-ELISA) [2]: 0.6 | Binding of a rabbit serum to linear peptides [3]: 0.3 | Binding of a rabbit serum to looped peptides [3]: 0.9

RYNTRGNTYSTAWLC
Binding of Control Serum Blood-Bank to Looped peptides [1]: 0.0 | Binding of Control serum Blood-bank to linear peptides [1]: 0.7 | Binding of Control serum LUMC to linear peptides [1]: 0.3 | Binding of Control serum LUMC to looped peptides [1]: 0.1 | Binding of serum 1a to linear peptides of protein X5 of SARS-CoV Urbani [2]: 0.8 | Binding of serum 1a to looped/cyclic peptides of protein X5 of SARS-CoV Urbani [2]: 0.5 | Binding of serum 1b to linear peptides of protein X5 of SARS-CoV Urbani [2]: 0.4 | Binding of serum 1b to looped/cyclic peptides of protein X5 of SARS-CoV Urbani [2]: 0.0 | Binding of serum 2 to linear peptides of protein X5 of SARS-CoV Urbani [2]: 0.5 | Binding of serum 2 to looped/cyclic peptides of protein X5 of SARS-CoV Urbani [2]: 0.3 | Binding of serum 6 to linear peptides of protein X5 of SARS-CoV Urbani [2]: 0.9 | Binding of serum 6 to looped/cyclic peptides of protein X5 of SARS-CoV Urbani [2]: 0.1 | Binding of serum 37 to linear peptides of protein X5 of SARS-CoV Urbani [2]: 0.4 | Binding of serum 37 to looped/cyclic peptides of protein X5 of SARS-CoV Urbani [2]: 0.0 | Binding of serum 62 to linear peptides of protein X5 of SARS-CoV Urbani [2]: 0.7 | Binding of serum 62 to looped/cyclic peptides of protein X5 of SARS-CoV Urbani [2]: 0.2 | Binding of serum London to linear peptides of protein X5 of SARS-CoV Urbani [2]: 1.0 | Binding of serum London to looped/cyclic peptides of protein X5 of SARS-CoV Urbani [2]: 0.2 | Binding of serum SARS-green to linear peptides of protein X5 of SARS-CoV Urbani [2]: 0.6 | Binding of serum SARS-green to looped/cyclic peptides of protein X5 of SARS-CoV Urbani [2]: 0.1 | Binding of serum SARS-yellow to linear peptides of protein X5 of SARS-CoV Urbani [2]: 0.2 | Binding of serum SARS-yellow to looped/cyclic peptides of protein X5 of SARS-CoV Urbani [2]: 0.6 | Rabbit serum linear peptides [3]: 0.7 | Rabbit serum looped peptides [3]: 0.0
